In ChEMBL document CHEMBL1938264, “Novel 3,4-isoxazolediamides as potent inhibitors of chaperone heat shock protein 90” (J Med Chem, 2011):

What was measured:
[1] = biological target: Heat shock protein HSP 90-beta (Homo sapiens, UniProt P08238); experiment: Binding affinity to Hsp90 after 4 hrs by fluorescence polarization assay
NCI-H460 = experiment: Cytotoxicity against human NCI-H460 after 72 hrs by sulforhodamine B assay; type: functional, cell-based; settings: NCI-H460, 72 h
[2] = Toxicity in human A431 cells xenografted ip dosed CD1 Harlan mouse; type: organism-based, A-431; settings: in vivo
A-431 = experiment: Antitumor activity against human A431 cells xenografted in CD1 Harlan mouse assessed as tumor volume inhibition at 60 mg/kg, ip qd administered for 5 days; type: functional; settings: A-431, ip, 120 h, route intraperitoneal
Mus musculus = experiment: Toxicity in human A431 cells xenografted CD1 Harlan mouse assessed as body weight loss at 60 mg/kg, ip qd administered for 5 days; type: organism-based, A-431; design: dose 60 mg/kg, route intraperitoneal; settings: in vivo, 120 h

Sequence of Heat shock protein HSP 90-beta (P08238 whole entry): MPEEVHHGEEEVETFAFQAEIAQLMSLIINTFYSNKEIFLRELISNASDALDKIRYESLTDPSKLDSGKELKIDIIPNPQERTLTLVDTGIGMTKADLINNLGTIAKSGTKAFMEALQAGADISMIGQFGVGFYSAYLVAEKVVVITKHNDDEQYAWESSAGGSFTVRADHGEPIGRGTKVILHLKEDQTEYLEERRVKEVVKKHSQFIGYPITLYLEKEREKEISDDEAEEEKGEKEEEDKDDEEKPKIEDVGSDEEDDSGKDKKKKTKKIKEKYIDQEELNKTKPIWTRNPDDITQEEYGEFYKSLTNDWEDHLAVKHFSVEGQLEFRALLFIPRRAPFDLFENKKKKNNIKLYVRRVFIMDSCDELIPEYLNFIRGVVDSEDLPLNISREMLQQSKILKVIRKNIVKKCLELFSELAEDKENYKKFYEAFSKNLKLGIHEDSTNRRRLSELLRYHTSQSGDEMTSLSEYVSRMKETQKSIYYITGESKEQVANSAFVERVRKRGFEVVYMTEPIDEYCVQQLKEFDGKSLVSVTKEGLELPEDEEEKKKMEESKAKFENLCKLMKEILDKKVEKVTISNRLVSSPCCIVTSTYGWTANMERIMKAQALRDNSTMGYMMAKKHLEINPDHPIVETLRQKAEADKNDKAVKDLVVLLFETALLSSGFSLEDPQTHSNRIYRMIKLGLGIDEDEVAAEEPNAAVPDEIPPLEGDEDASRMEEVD

| SMILES | IC50 [1] [µM] | IC50 (NCI-H460) [µM] | MTD [2] [mg/kg] | inhibition in vivo at 60 mg/kg (A-431) [%] | Activity (Mus musculus) [%] |
| --- | --- | --- | --- | --- | --- |
| CCNC(=O)c1noc(-c2cc(C(C)C)c(O)cc2O)c1NC(=O)[C@H]1CC[C@H](CN)CC1 | 0.04 | > 1 | – | – | – |
| CCNC(=O)c1noc(-c2cc(Cl)c(O)cc2O)c1NC(=O)CCN1CCOCC1 | 0.168 | 0.13 | – | – | – |
| CCNC(=O)c1noc(-c2cc(C(C)C)c(O)cc2O)c1NC(=O)c1ccc(Br)o1 | 0.022 | 0.019 | – | – | – |
| CCNC(=O)c1noc(-c2cc(C(C)C)c(O)cc2O)c1NC(=O)c1ccco1 | < 0.005 | 0.022 | – | – | – |
| COc1ccc(C(=O)Nc2c(C(=O)N3CC(F)(F)C3)noc2-c2cc(Cl)c(O)cc2O)cc1 | > 100 | > 1 | – | – | – |
| CCNC(=O)c1noc(-c2cc(C(C)C)c(O)cc2O)c1NC(=O)[C@@H]1CC[C@H](C(=O)O)C1 | 0.039 | > 1 | – | – | – |
| CCCCC[C@H]1CC[C@H](C(=O)Nc2c(C(=O)NCC)noc2-c2cc(C(C)C)c(O)cc2O)CC1 | 0.26 | > 1 | – | – | – |
| CCNC(=O)c1noc(-c2cc(C(C)C)c(O)cc2O)c1NC(=O)c1cccc2cccnc12 | 0.036 | 0.49 | – | – | – |
| CCNC(=O)c1noc(-c2cc(C(C)C)c(O)cc2O)c1NC(=O)c1ccc(-n2cccc2)cc1 | 0.032 | > 1 | – | – | – |
| CCNC(=O)c1noc(-c2cc(C(C)C)c(O)cc2O)c1NC(=O)c1cc(-c2ccccc2)on1 | 0.25 | > 1 | – | – | – |
| CCNC(=O)c1noc(-c2cc(C(C)C)c(O)cc2O)c1NC(=O)C1CCC(C(F)(F)F)CC1 (configuration not stated) | 0.24 | 0.042 | – | – | – |
| CCNC(=O)c1noc(-c2cc(Cl)c(O)cc2O)c1NCc1ccc(OC)cc1 | 0.43 | > 1 | – | – | – |
| CCNC(=O)c1noc(-c2cc(C(C)C)c(O)cc2O)c1NC(=O)[C@H]1CC[C@H](N2CCOCC2)CC1 | < 0.005 | 0.68 | – | – | – |
| CCNC(=O)c1noc(-c2cc(C(C)C)c(O)cc2O)c1NC(=O)c1ccc2ccn(C)c2c1 | 0.034 | 0.087 | – | – | – |
| CCNC(=O)c1noc(-c2cc(C(C)C)c(O)cc2O)c1NC(=O)c1ccc2cc[nH]c2c1 | 0.033 | 0.17 | – | – | – |
| CCNC(=O)c1noc(-c2cc(C(C)C)c(O)cc2O)c1NC(=O)[C@H]1CC[C@H](O)CC1 | < 0.005 | > 1 | – | – | – |
| CCNC(=O)c1noc(-c2cc(C(C)C)c(O)cc2O)c1NC(=O)c1ccc2ncoc2c1 | 0.015 | 0.11 | – | – | – |
| CCNC(=O)c1noc(-c2cc(C(C)C)c(O)cc2O)c1-c1ccc(CN2CCOCC2)cc1 [LUMINESPIB] | – | 0.0024 | 60 | 48 | 8 |

| SMILES | IC50 [1] [µM] | IC50 (NCI-H460) [µM] | MTD [2] [mg/kg] | inhibition in vivo at 60 mg/kg (A-431) [%] | Activity (Mus musculus) [%] |
| --- | --- | --- | --- | --- | --- |
| CCNC(=O)c1noc(-c2cc(C(C)C)c(O)cc2O)c1NC(=O)[C@H]1CC[C@@H](CN2CCOCC2)CC1 | 0.0196 | 0.14 | – | – | – |
| CCNC(=O)c1noc(-c2cc(C(C)C)c(O)cc2O)c1NC(=O)c1sc(-c2ccncc2)nc1C | 0.027 | > 1 | – | – | – |
| CCNC(=O)c1cc(C(=O)Nc2c(C(=O)NCC)noc2-c2cc(C(C)C)c(O)cc2O)on1 | 0.024 | > 1 | – | – | – |
| CCNC(=O)c1noc(-c2cc(C(C)C)c(O)cc2O)c1NC(=O)c1oc2ccc(OC)cc2c1C | 0.048 | 0.75 | – | – | – |
| CCNC(=O)c1noc(-c2cc(C(C)C)c(O)cc2O)c1NC(=O)C1CCNCC1 | < 0.005 | > 1 | – | – | – |
| CCNC(=O)c1noc(-c2cc(Cl)c(O)cc2O)c1NC(=O)c1cc(OC)c(OC)c(OC)c1 | 0.13 | > 1 | – | – | – |
| CCNC(=O)c1noc(-c2cc(C(C)C)c(O)cc2O)c1NC(=O)[C@H]1CC[C@H](C(N)=O)CC1 | < 0.005 | > 1 | – | – | – |
| CCNC(=O)c1noc(-c2cc(C(C)C)c(O)cc2O)c1NC(=O)[C@H]1CC[C@H](CO)CC1 | < 0.005 | 0.6 | – | – | – |
| CCNC(=O)c1noc(-c2cc(C(C)C)c(O)cc2O)c1NC(=O)[C@@H]1CC[C@H](CO)C1 (relative stereo) | 0.0126 | > 0.26 | – | – | – |
| CCNC(=O)c1noc(-c2cc(C(C)C)c(O)cc2O)c1NC(=O)c1ccc(OC)c(F)c1 | 0.034 | 0.055 | – | – | – |
| CCNC(=O)c1noc(-c2cc(C(C)C)c(O)cc2O)c1NC(=O)c1ccc(N2CCN(C)CC2)cc1 | 0.024 | > 1 | – | – | – |
| CCNC(=O)c1noc(-c2cc(Cl)c(O)cc2O)c1NC(=O)c1sccc1C | 0.074 | 0.41 | – | – | – |
| CCNC(=O)c1noc(-c2cc(Cl)c(O)cc2O)c1NC1CCCCC1 | 0.62 | > 1 | – | – | – |
| CCNC(=O)c1noc(-c2cc(Cl)c(O)cc2O)c1NC(=O)C12CC3CC(CC(C3)C1)C2 | 0.25 | 0.75 | – | – | – |
| CCNC(=O)c1noc(-c2cc(C(C)C)c(O)cc2O)c1NC(=O)C1CC(O)C1 (configuration not stated) | 0.014 | 0.92 | – | – | – |
| CCNC(=O)c1noc(-c2cc(Cl)c(O)cc2O)c1NC(C)=O | 0.037 | > 1 | – | – | – |
| CCNC(=O)c1noc(-c2cc(C(C)C)c(O)cc2O)c1NC(=O)CCN1CCOCC1 | 0.214 | 0.11 | – | – | – |
